Experimental data from PubChem BioAssay (NCI).
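Growth conditions: 96-well plates. Treatment: test compound, 48 hours, 5 concentrations. Analysis: linear interpolation between bracketing concentrations; unreached endpoints set to highest concentration. GI50: concentration for 50% inhibition of growth. The concentration for full growth arrest is given as TGI.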

Columns and labels:
Assay in all cases: NCI anticancer screen, dose series, 48 h
EKVX NSCLC = test system: EKVX NSCLC
MCF7 breast = test system: MCF7 breast
SF-268 CNS = test system: SF-268 CNS
SW-620 colon = test system: SW-620 colon
HCT-15 colon = test system: HCT-15 colon
ACHN renal = test system: ACHN renal
RPMI-8226 leukemia = test system: RPMI-8226 leukemia
PC-3 prostate = test system: PC-3 prostate
DU-145 prostate = test system: DU-145 prostate
TK-10 renal = test system: TK-10 renal
SK-MEL-2 melanoma = test system: SK-MEL-2 melanoma
NCI-H23 lung = test system: NCI-H23 lung
UO-31 renal = test system: UO-31 renal
786-0 renal = test system: 786-0 renal
K-562 leukemia = test system: K-562 leukemia
OVCAR-4 ovarian = test system: OVCAR-4 ovarian
SNB-19 CNS = test system: SNB-19 CNS
CAKI-1 renal = test system: CAKI-1 renal
RXF 393 renal = test system: RXF 393 renal
SN12C renal = test system: SN12C renal
MALME-3M melanoma = test system: MALME-3M melanoma
NCI/ADR-RES ovarian = test system: NCI/ADR-RES ovarian
SF-295 CNS = test system: SF-295 CNS
MOLT-4 leukemia = test system: MOLT-4 leukemia
M14 melanoma = test system: M14 melanoma
A498 renal = test system: A498 renal
HL-60(TB) leukemia = test system: HL-60(TB) leukemia
IGROV1 ovarian = test system: IGROV1 ovarian
OVCAR-8 ovarian = test system: OVCAR-8 ovarian
BT-549 breast = test system: BT-549 breast
SK-MEL-28 melanoma = test system: SK-MEL-28 melanoma
SNB-75 CNS = test system: SNB-75 CNS
T-47D breast = test system: T-47D breast
OVCAR-5 ovarian = test system: OVCAR-5 ovarian
MDA-MB-231 breast = test system: MDA-MB-231 breast
HCT-116 colon = test system: HCT-116 colon
KM12 colon = test system: KM12 colon
SR leukemia = test system: SR leukemia
NCI-H226 lung = test system: NCI-H226 lung
MDA-MB-435 = test system: MDA-MB-435
HCC-2998 colon = test system: HCC-2998 colon
A549 NSCLC = test system: A549 NSCLC
HOP-62 NSCLC = test system: HOP-62 NSCLC
HS 578T breast = test system: HS 578T breast
CCRF-CEM leukemia = test system: CCRF-CEM leukemia
LOX IMVI melanoma = test system: LOX IMVI melanoma
U251 CNS = test system: U251 CNS
UACC-62 melanoma = test system: UACC-62 melanoma
SK-OV-3 ovarian = test system: SK-OV-3 ovarian
HT29 colon = test system: HT29 colon
UACC-257 melanoma = test system: UACC-257 melanoma
SK-MEL-5 melanoma = test system: SK-MEL-5 melanoma
SF-539 CNS = test system: SF-539 CNS
NCI-H522 lung = test system: NCI-H522 lung
COLO 205 colon = test system: COLO 205 colon
NCI-H460 lung = test system: NCI-H460 lung

## O=C(NCc1ncc[nH]1)c1ccc(-c2nc3ccc4[nH]ncc4c3c3c2CCCC3)cc1
EKVX NSCLC
  GI50: 2.86 µM
  TGI: 24.2 µM
MCF7 breast
  GI50: 1.17 µM
  TGI: 6.76 µM
SF-268 CNS
  GI50: 1.33 µM
  TGI: 8.88 µM
SW-620 colon
  GI50: 1.36 µM
  TGI: > 50 µM
HCT-15 colon
  GI50: 6.28 µM
  TGI: > 50 µM
ACHN renal
  GI50: 1.6 µM
  TGI: > 50 µM
RPMI-8226 leukemia
  GI50: 6.15 µM
  TGI: 23.4 µM
PC-3 prostate
  GI50: 1.81 µM
  TGI: 32 µM
DU-145 prostate
  GI50: 2.17 µM
  TGI: > 50 µM
TK-10 renal
  GI50: 1.66 µM
  TGI: > 50 µM
SK-MEL-2 melanoma
  GI50: 1.1 µM
  TGI: 2.87 µM
NCI-H23 lung
  GI50: 1.82 µM
  TGI: 8.21 µM
UO-31 renal
  GI50: 7.57 µM
  TGI: 22.6 µM
786-0 renal
  GI50: 1.97 µM
  TGI: 12.1 µM
K-562 leukemia
  GI50: 2.02 µM
  TGI: > 50 µM
OVCAR-4 ovarian
  GI50: 3.19 µM
  TGI: 19.7 µM
SNB-19 CNS
  GI50: 1.85 µM
  TGI: 38.1 µM
CAKI-1 renal
  GI50: 1.08 µM
  TGI: 4.8 µM
RXF 393 renal
  GI50: 0.603 µM
  TGI: 2.76 µM
SN12C renal
  GI50: 1.69 µM
  TGI: 10.6 µM
MALME-3M melanoma
  GI50: 1.31 µM
  TGI: 3.67 µM
NCI/ADR-RES ovarian
  GI50: > 50 µM
  TGI: > 50 µM
SF-295 CNS
  GI50: 3 µM
  TGI: 14.9 µM
MOLT-4 leukemia
  GI50: 1.51 µM
  TGI: 16.8 µM
M14 melanoma
  GI50: 1.43 µM
  TGI: 7.44 µM
A498 renal
  GI50: 0.958 µM
  TGI: 4.38 µM
HL-60(TB) leukemia
  GI50: 1.64 µM
  TGI: 8.98 µM
IGROV1 ovarian
  GI50: 0.818 µM
  TGI: 7.64 µM
OVCAR-8 ovarian
  GI50: 1.81 µM
  TGI: 17.3 µM
BT-549 breast
  GI50: 0.957 µM
  TGI: 5.48 µM
SK-MEL-28 melanoma
  GI50: 1.19 µM
  TGI: 4.6 µM
SNB-75 CNS
  GI50: 1.61 µM
  TGI: 5.2 µM
T-47D breast
  GI50: 1.18 µM
  TGI: 6.13 µM
OVCAR-5 ovarian
  GI50: 9.18 µM
  TGI: > 50 µM
MDA-MB-231 breast
  GI50: 1.84 µM
  TGI: 10.9 µM
HCT-116 colon
  GI50: 0.58 µM
  TGI: > 50 µM
KM12 colon
  GI50: 1.61 µM
  TGI: 9.87 µM
SR leukemia
  GI50: 0.549 µM
  TGI: 27.7 µM
NCI-H226 lung
  GI50: 1.4 µM
  TGI: 17.3 µM
MDA-MB-435
  GI50: 1.66 µM
  TGI: 7.05 µM
HCC-2998 colon
  GI50: 1.94 µM
  TGI: 8.73 µM
A549 NSCLC
  GI50: 8.04 µM
  TGI: > 50 µM
HOP-62 NSCLC
  GI50: 1.5 µM
  TGI: 9.57 µM
HS 578T breast
  GI50: 1.25 µM
  TGI: 7.65 µM
CCRF-CEM leukemia
  GI50: 1.29 µM
  TGI: > 50 µM
LOX IMVI melanoma
  GI50: 1.46 µM
  TGI: 6.73 µM
U251 CNS
  GI50: 1.68 µM
  TGI: 11.6 µM
UACC-62 melanoma
  GI50: 1.38 µM
  TGI: 6.47 µM
SK-OV-3 ovarian
  GI50: 0.707 µM
  TGI: 3.3 µM
HT29 colon
  GI50: 2.66 µM
  TGI: > 50 µM
UACC-257 melanoma
  GI50: 3.61 µM
  TGI: 18.8 µM
SK-MEL-5 melanoma
  GI50: 1.93 µM
  TGI: 7.51 µM
SF-539 CNS
  GI50: 1.21 µM
  TGI: 5.85 µM
NCI-H522 lung
  GI50: 0.869 µM
  TGI: 2.85 µM
COLO 205 colon
  GI50: 1.12 µM
  TGI: 3.44 µM
NCI-H460 lung
  GI50: 1.94 µM
  TGI: 7.83 µM
